Experimental data as given in patent US10100052B2, “Compounds for the treatment of hepatitis B virus infection” (Gilead Sciences, Inc., priority 2016, dated 2018).

Assays:
[1] = In vitro metabolic stability, hepatic microsomes (rat); type: in vitro ADME; settings: pooled hepatic microsomes, pH 7.4; rat hepatic microsomes 1.0 mg/mL, 1 μM compound, NADPH and UDPGA cofactors; read-out: Microsome Stability T1/2 Rat
Procedure: (§1) Pooled hepatic microsomes were diluted in […] potassium phosphate buffer to 1.0 mg/mL final protein concentration. Alamethicin was added to the microsomal fraction to permeabilize the membrane to allow access of the UDP-glucronic acid (UDPGA) co-substrate to the active site of the UDP glucuronosyl transferase (UGT) enzymes. The final concentration was 25 μg/mL (ratio 25 μg alamethicin/mg microsomal protein) and the microsomes were then placed on ice for 15 min prior to the start of the reaction. Test compound was added to a final concentration of 1 μM. Positive control compounds known to be metabolized by oxidative and UGT enzymes were used. The metabolic reaction was warmed to 37° C. and initiated by the addition of a cofactor mix that consisted of 1.55 mM NADP, 3.3 mM glucose-6-phosphate, 0.4 U/mL glucose-6-phosphate dehydrogenase, 5 mM UDP-glucuronic acid and 3.3 mM MgCl2 all dissolved in 0.1 M potassium phosphate buffer, pH 7.4. At 2, 12, 25, 45, and 65 min, 25 μL aliquots of the reaction mixture were transferred to plates containing 225 μl of quenching solution (acetonitrile containing 300 nM labetalol IS and 0.1% formic acid). After quenching, the plates are centrifuged at 3000×g for 30 minutes to precipitate proteins, and 10 μL aliquots of the supernatant are analyzed by HPLC coupled to a high-resolution mass spectrometer.
(§2) Quantification of test compounds and positive controls were performed using analyte/internal standard peak area ratios (PAR) measured on a Q-Exactive mass spectrometer (Thermo Scientific, San Jose, Calif.) coupled to an Aria Transcend LX-4 multiplex UHPLC system (Thermo Scientific, San Jose, Calif.). A Hypersil Gold C18 UHPLC column (1.9 m particle size, 50×2.1 mm) was used with mobile phases A and B consisting of 0.1% formic acid in water and 0.1% formic acid in acetonitrile, respectively. […] Half-lives of compounds in the incubations were calculated from extracted data using GMSU/QuickCalc (Gubbs, Inc.) and data are summarized in the following Table 3.

[2] = In vitro metabolic stability, hepatic microsomes (human); type: in vitro ADME; settings: pooled hepatic microsomes, pH 7.4; human hepatic microsomes 1.0 mg/mL, 1 μM compound, NADPH and UDPGA cofactors; read-out: Microsome Stability T1/2 Human
Procedure: as §1, §2

[3] = Pharmacokinetic analysis following oral administration to rats; type: in vivo, male Sprague-Dawley rats; settings: rat, 5 mg/kg; for Cmax / AUC(0-t): male, Sprague-Dawley, plasma; for AUC(0-t): 0 to 24 hr, read-out: AUC0-24; for F: oral bioavailability
Procedure: Pharmacokinetic analysis was performed on various test compounds following intravenous or oral administration to male Sprague-Dawley rats.
For pharmacokinetic analysis of intravenously administered compounds, the test compounds were formulated in 5% NMP, 30% PG, 45% PEG 300 and 20% water at 0.5 mg/mL for IV infusion. For pharmacokinetic analysis following oral administration, compounds were formulated in the same vehicle and concentration.
Each dosing group consisted of 3 male, naïve Sprague-Dawley rats. At dosing, animals weighed approximately 0.28 kg. The animals were fasted overnight prior to dose administration and up to 4 hr after dosing. For studies of intravenous administration, the test article was administered to the animals by intravenous infusion over 30 min. The rate of infusion was adjusted according to the body weight of each animal to deliver a dose of 1 mg/kg. For studies of oral administration, the test article was administered according to the body weight of each animal to deliver a dose of 5 mg/kg.
For pharmacokinetic analysis of orally administered compounds, serial venous blood samples (approximately 0.3 mL each) were taken from each animal at time points of 0, 0.25, 0.50, 1.0, 2.0, 4.0, 6.0, 8.0, 12.0 and 24.0 hours after dosing. Blood samples were collected, prepared and analyzed in a similar way to the intravenous studies described above. Non-compartmental pharmacokinetic analysis was performed on the plasma concentration-time data. The resulting data are shown in the last three columns of Table 4. In Table 4, F (%) refers to oral bioavailability. Cmax refers to the peak plasma concentration of the compound after administration. AUC0-24 refers to area under the curve for the 0 to 24 hr plasma collection interval and is a measure of total plasma exposure of the indicated compound.

[4] = In vitro metabolic stability, hepatocytes (human); type: in vitro ADME; settings: human hepatocytes 1×10^6 cells/mL, 2 μM compound; read-out: Hepatocyte Stability T1/2 Human (converted)
Procedure: (§3) For hepatocyte stability incubations, cells were obtained from BioreclamationIVT (Baltimore, Md.), thawed according to the manufacturer's directions, and resuspended to a final concentration of 1×10^6 cells/mL in Krebs-Henseleit buffer prewarmed to 37° C. The total cell count and the proportion of viable cells were determined by Trypan Blue dye exclusion using a hemocytometer. The final concentration of test compounds and positive controls was 2 μM. Incubations were carried out in duplicate wells of a 24-well plate out with gentle shaking at 37° C. under a humid atmosphere of 95% air/5% CO2 (v/v). Aliquots (50 μL) were removed after 0, 1, 3, and 6 hours and added to 100 μL quenching solution. Samples were then processed and analyzed in a manner similar to the microsomal stability samples.
as §2, with “Calif.).” for “Calif.). A Hypersil Gold C18 UHPLC column (1.9 m particle size, 50×2.1 mm) was used with mobile phases A and B consisting of 0.1% formic acid in water and 0.1% formic acid in acetonitrile, respectively.”

[5] = In vitro metabolic stability, hepatocytes (rat); type: in vitro ADME; settings: rat hepatocytes 1×10^6 cells/mL, 2 μM compound; read-out: Hepatocyte Stability T1/2 Rat (converted)
Procedure: as §3
as §2, with “Calif.).” for “Calif.). A Hypersil Gold C18 UHPLC column (1.9 m particle size, 50×2.1 mm) was used with mobile phases A and B consisting of 0.1% formic acid in water and 0.1% formic acid in acetonitrile, respectively.”

## COCCCOc1cc2c(cc1Cl)-c1cc(=O)c(C(=O)O)cn1[C@H](C(C)(C)C)C2 [Comparative Example 2]
[1]
  half-life at 1 μM: 3.83 h
[2]
  half-life at 1 μM: 4.9 h
[3]
  Cmax: 2.43 µM
  AUC(0-t): 15.2 µM·h
  F: 40.5%

## COCCCOc1cc2c(cc1Cl)-c1cc(=O)c(C(=O)O)cn1[C@H](C1(C)CC1)C2 [Comparative Example 1]
[1]
  half-life at 1 μM: 3.82 h
[2]
  half-life at 1 μM: 3.9 h
[4]
  half-life at 2 μM: 8.9 h
[5]
  half-life at 2 μM: 7 h
[3]
  Cmax: 4.03 µM
  AUC(0-t): 22.1 µM·h
  F: 53.8%

## COCCCOc1cc2c(cc1Cl)-c1cc(=O)c(C(=O)O)cn1N(C(C)(C)C)C2 [Example 2, 6-(tert-Butyl)-10-chloro-9-(3-methoxypropoxy)-2-oxo-6,7-dihydro-2H-pyrido[2,1-a]-phthalazine-3-carboxylic acid]
[1]
  half-life at 1 μM: > 5.83 h
[2]
  half-life at 1 μM: > 5.83 h
[4]
  half-life at 2 μM: 26.6 h
[5]
  half-life at 2 μM: > 39.5 h
[3]
  Cmax: 6.76 µM
  AUC(0-t): 68.6 µM·h
  F: 109%
